Measurements from ChEMBL document CHEMBL3108737, “HIV Integrase Inhibitors for Treatment of HIV Infections and AIDS” (ACS Med Chem Lett, 2014).

target: Human immunodeficiency virus type 1 integrase (Human immunodeficiency virus 1) (UniProt Q7ZJM1); assay: Inhibition of HIV1 integrase-mediated viral replication in human MT4 cells after 72 hrs in presence of 10% normal human serum; format: cell-based
Sequence (Q7ZJM1 as listed by the source): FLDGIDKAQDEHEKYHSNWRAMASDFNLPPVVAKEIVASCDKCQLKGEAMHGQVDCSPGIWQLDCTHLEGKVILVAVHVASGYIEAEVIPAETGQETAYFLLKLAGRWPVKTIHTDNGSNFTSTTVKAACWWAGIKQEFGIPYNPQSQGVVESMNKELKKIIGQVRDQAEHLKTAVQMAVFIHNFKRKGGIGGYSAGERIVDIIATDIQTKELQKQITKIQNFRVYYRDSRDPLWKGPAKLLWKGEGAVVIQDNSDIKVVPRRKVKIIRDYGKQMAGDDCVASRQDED

Compound | IC95 [nM]
CN1CCCc2cc(F)ccc2CNC(=O)c2nc3n(c(=O)c2O)CCCCC3N(C)C(=O)C1=O (stereo not drawn) | 2260
CC[C@H]1COCC2c3nc(c(O)c(=O)n31)C(=O)NCc1cc(C)c(F)cc1OCC/C=C/C(=O)N2C (stereo partly drawn) | 6
CC[C@H]1COC[C@@H]2c3nc(c(O)c(=O)n31)C(=O)NCc1ccc(F)cc1OCCCCC(=O)N2C | 9
